In publication PMC7938330 (Toxicology in vitro : an international journal published in …, 2020):

Biological target: Complex V (ATP synthase complex) (Bos taurus, UniProt P00829+P05631+P19483)
Assay: immunocapture-based OXPHOS activity assay
Format: biochemical

For `C1CCC(C(CC2CCCCN2)C2CCCCC2)CC1` (stereo not shown) [perhexiline], the IC50 was 10 nM.
